In patent US20250382305A1 (PTC THERAPEUTICS, INC., priority 2022, published 2025):

Assays:
[1] = test system: ATXN3 pre-mRNA; assay: RT-qPCR Assay to Quantify Exon 4 Skipping in ATXN3 pre-mRNA in Cells; type: cell-based; conditions: percent exon 4 skipping in ATXN3 pre-mRNA, RT-qPCR of cell lysates; average IC50
Summary of the method: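 Cells plated at 10,000/well onto a 7-point, 3.16-fold DMSO dilution series (duplicates), incubated 24 h at 37 °C, then lysed. Exon 4 skipping measured by one-step RT-qPCR (48 °C RT, 40 cycles); IC50 interpolated from dose-response fit of percent skipping.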

[2] = test system: Total ATXN3 (tATXN3) protein; assay: Endogenous Total ATXN3 (tATXN3) Protein Assay (MSD immunoassay of cell lysates); type: cell-based; conditions: average IC50, total ATXN3 protein in cell lysate after 48 h with compound (Table 1)
Summary of the method: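 Cells in DMEM/10% FBS were plated at 10,000 per well onto 7-point, 3.16-fold compound dilutions in duplicate for 48 h at 37° C, then lysed. Total ATXN3 in lysates was measured by MSD sandwich immunoassay: mouse anti-ATXN3 capture, rabbit anti-ATXN3 detection, SULFO-TAG anti-rabbit. Average IC50 was reported in star bins.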

| Compound | IC50 [1] | IC50 [2] |
| --- | --- | --- |
| C#Cc1c([C@@H]2CCCC[C@H]2N)sc2c(NCc3ccccc3F)cc(Cl)nc12 [Compound 430, 2-((1R,2R)-2-aminocyclohexyl)-5-chloro-3-ethynyl-N-(2-fluorobenzyl)thieno[3,2-b]pyridin-7-amine] | 30 to 300 nM | 30 to 300 nM |
| N[C@@H]1CCCC[C@H]1c1sc2c(NCc3cccs3)cc(Cl)nc2c1COC(F)F.N[C@H]1CCCC[C@@H]1c1sc2c(NCc3cccs3)cc(Cl)nc2c1COC(F)F (mixture of isomers) [Compound 257, 2-((1S,2S)-2-aminocyclohexyl)-5-chloro-3-((difluoromethoxy)methyl)-N-(thiophen-2-ylmethyl)thieno[3,2-b]pyridin-7-amine and 2-((1R,2R)-2-aminocyclohexyl)-5-chloro-3-((difluoromethoxy)methyl)-N-(thiophen-2-ylmethyl)thieno[3,2-b]pyridin-7-amine] | ≤ 30 nM | 30 to 300 nM |
| 2-((1S,2S)-2-aminocyclohexyl)-5-chloro-3-(fluoromethyl)-N-(thiophen-2-ylmethyl)thieno[3,2-b]pyridin-7-amine and 2-((1R,2R)-2-aminocyclohexyl)-5-chloro-3-(fluoromethyl)-N-(thiophen-2-ylmethyl)thieno[3,2-b]pyridin-7-amine [Compound 400] | 300 to 1000 nM | 300 to 1000 nM |
| (2-((1S,2S)-2-aminocyclohexyl)-5-chloro-7-((thiophen-2-ylmethyl)amino)thieno[3,2-b]pyridin-3-yl)methanol and (2-((1R,2R)-2-aminocyclohexyl)-5-chloro-7-((thiophen-2-ylmethyl)amino)thieno[3,2-b]pyridin-3-yl)methanol [Compound 360] | 30 to 300 nM | 30 to 300 nM |
| N[C@H]1CCCC[C@@H]1c1sc2c(NCc3cccs3)cc(Cl)nc2c1Br [Compound 55, 2-((1S,2S)-2-aminocyclohexyl)-3-bromo-5-chloro-N-(thiophen-2-ylmethyl)thieno[3,2-b]pyridin-7-amine] | 30 to 300 nM | 30 to 300 nM |
| Cc1c([C@H]2CC=CC[C@@H]2N)sc2c(NCc3ccncc3F)nc(Cl)nc12 [Compound 253, 6-((1S,6S)-6-aminocyclohex-3-en-1-yl)-2-chloro-N-((3-fluoropyridin-4-yl)methyl)-7-methylthieno[3,2-d]pyrimidin-4-amine] | ≤ 30 nM | 30 to 300 nM |
| 6-((3R,4S)-3-aminotetrahydro-2H-pyran-4-yl)-2,7-dichloro-N-(furan-2-ylmethyl)thieno[3,2-d]pyrimidin-4-amine and 6-((3S,4R)-3-aminotetrahydro-2H-pyran-4-yl)-2,7-dichloro-N-(furan-2-ylmethyl)thieno[3,2-d]pyrimidin-4-amine [Compound 354] | 30 to 300 nM | 30 to 300 nM |
| N[C@H]1CCCC(F)(F)[C@@H]1c1sc2c(NCc3ccco3)nc(Cl)nc2c1Br [Compound 201, 6-((1R,6S)-6-amino-2,2-difluorocyclohexyl)-7-bromo-2-chloro-N-(furan-2-ylmethyl)thieno[3,2-d]pyrimidin-4-amine] | ≤ 30 nM | ≤ 30 nM |
| CN(Cc1cccs1)c1cc(Cl)nc2c(C#CCCCO)c([C@@H]3CC=CC[C@H]3N)sc12 [Compound 451, 5-(2-((1R,6R)-6-aminocyclohex-3-en-1-yl)-5-chloro-7-(methyl(thiophen-2-ylmethyl)amino)thieno[3,2-b]pyridin-3-yl)pent-4-yn-1-ol] | 30 to 300 nM | 30 to 300 nM |
| N[C@H]1CCCC[C@]1(O)c1sc2c(NCc3cccs3)cc(Cl)nc2c1Cl [Compound 31, (1R,2S)-2-amino-1-(3,5-dichloro-7-((thiophen-2-ylmethyl)amino)thieno[3,2-b]pyridin-2-yl)cyclohexan-1-ol] | > 1000 nM | > 1000 nM |
| N[C@@H]1CCNCC[C@H]1c1sc2c(NCc3cccs3)cc(Cl)nc2c1Br.N[C@H]1CCNCC[C@@H]1c1sc2c(NCc3cccs3)cc(Cl)nc2c1Br (mixture of isomers) [Compound 147, 2-((4R,5R)-5-aminoazepan-4-yl)-3-bromo-5-chloro-N-(thiophen-2-ylmethyl)thieno[3,2-b]pyridin-7-amine and 2-((4S,5S)-5-aminoazepan-4-yl)-3-bromo-5-chloro-N-(thiophen-2-ylmethyl)thieno[3,2-b]pyridin-7-amine] | > 1000 nM | > 1000 nM |
| 2-((1R,2S,6R)-2-amino-6-fluorocyclohexyl)-3-bromo-5-chloro-N-(thiophen-2-ylmethyl)thieno[3,2-b]pyridin-7-amine and 2-((1S,2R,6S)-2-amino-6-fluorocyclohexyl)-3-bromo-5-chloro-N-(thiophen-2-ylmethyl)thieno[3,2-b]pyridin-7-amine [Compound 181] | ≤ 30 nM | ≤ 30 nM |
| 2-((1R,2R)-2-aminocyclohexyl)-3,5-dichloro-1-(difluoromethyl)-N-(thiophen-2-ylmethyl)-1H-pyrrolo[3,2-b]pyridin-7-amine and 2-((1S,2S)-2-aminocyclohexyl)-3,5-dichloro-1-(difluoromethyl)-N-(thiophen-2-ylmethyl)-1H-pyrrolo[3,2-b]pyridin-7-amine [Compound 421] | ≤ 30 nM | ≤ 30 nM |
| N[C@@H]1CC=CC[C@H]1c1sc2c(NCc3cccs3)cc(Cl)nc2c1Cl.N[C@H]1CC=CC[C@@H]1c1sc2c(NCc3cccs3)cc(Cl)nc2c1Cl (mixture of isomers) [Compound 431, 2-((1R,6R)-6-aminocyclohex-3-en-1-yl)-3,5-dichloro-N-(thiophen-2-ylmethyl)thieno[3,2-b]pyridin-7-amine and 2-((1S,6S)-6-aminocyclohex-3-en-1-yl)-3,5-dichloro-N-(thiophen-2-ylmethyl)thieno[3,2-b]pyridin-7-amine] | ≤ 30 nM | ≤ 30 nM |
| N[C@H]1CC=CC[C@@H]1c1c(I)c2nc(Cl)cc(NCc3ccccc3)c2n1C(F)F [Compound 352, 2-((1S,6S)-6-aminocyclohex-3-en-1-yl)-N-benzyl-5-chloro-1-(difluoromethyl)-3-iodo-1H-pyrrolo[3,2-b]pyridin-7-amine] | 30 to 300 nM | 30 to 300 nM |
| N[C@@H]1CCCO[C@H]1c1sc2c(NCc3ccccc3)cc(Cl)nc2c1Br [Compound 113, 2-((2R,3R)-3-aminotetrahydro-2H-pyran-2-yl)-N-benzyl-3-bromo-5-chlorothieno[3,2-b]pyridin-7-amine] | > 1000 nM | > 1000 nM |

Second part, the compound after the results:

| IC50 [1] | IC50 [2] | Compound |
| --- | --- | --- |
| 30 to 300 nM | 30 to 300 nM | 2-((1R,2R,6S)-2-amino-6-fluorocyclohexyl)-3-bromo-5-chloro-N-(thiophen-2-ylmethyl)thieno[3,2-b]pyridin-7-amine and 2-((1S,2S,6R)-2-amino-6-fluorocyclohexyl)-3-bromo-5-chloro-N-(thiophen-2-ylmethyl)thieno[3,2-b]pyridin-7-amine [Compound 335] |
| ≤ 30 nM | ≤ 30 nM | N[C@H]1CCCC[C@@H]1c1sc2c(NCc3ccccc3)nc(Cl)nc2c1Br [Compound 65, 6-[(1S,2S)-2-aminocyclohexyl]-N-benzyl-7-bromo-2-chloro-thieno[3,2-d]pyrimidin-4-amine] |
| ≤ 30 nM | ≤ 30 nM | N[C@H]1CCC[C@@H]1c1sc2c(NCc3cccs3)cc(Cl)nc2c1Br [Compound 8, 2-((1S,2S)-2-aminocyclopentyl)-3-bromo-5-chloro-N-(thiophen-2-ylmethyl)thieno[3,2-b]pyridin-7-amine] |
| 30 to 300 nM | 30 to 300 nM | Cc1c([C@H]2CC=C(C(=O)N(C)C)C[C@@H]2N)sc2c(NCc3cccs3)cc(Cl)nc12 [Compound 312, (4S,5S)-5-amino-4-(5-chloro-3-methyl-7-((thiophen-2-ylmethyl)amino)thieno[3,2-b]pyridin-2-yl)-N,N-dimethylcyclohex-1-ene-1-carboxamide] |
| 30 to 300 nM | 30 to 300 nM | CC#CCNc1cc(Cl)nc2c(I)c([C@H]3CCCC[C@@H]3N)sc12 [Compound 283, 2-((1S,2S)-2-aminocyclohexyl)-N-(but-2-yn-1-yl)-5-chloro-3-iodothieno[3,2-b]pyridin-7-amine] |
| ≤ 30 nM | ≤ 30 nM | Cc1c([C@H]2CCCC[C@@H]2N)sc2c(NCc3ccco3)cc(Cl)nc12 [Compound 231, 2-((1S,2S)-2-aminocyclohexyl)-5-chloro-N-(furan-2-ylmethyl)-3-methylthieno[3,2-b]pyridin-7-amine] |
| > 1000 nM | > 1000 nM | 6-((1R,2R)-2-aminocyclohexyl)-N-benzyl-2-chloro-7-methylthieno[3,2-d]pyrimidin-4-amine or 6-((1S,2S)-2-aminocyclohexyl)-N-benzyl-2-chloro-7-methylthieno[3,2-d]pyrimidin-4-amine [Compound 43] |
| > 1000 nM | > 1000 nM | N[C@@H]1CCC[C@H]1c1sc2c(NCc3ccccc3)cc(Cl)nc2c1Br [Compound 161, 2-((1R,2R)-2-aminocyclopentyl)-N-benzyl-3-bromo-5-chlorothieno[3,2-b]pyridin-7-amine] |
| ≤ 30 nM | ≤ 30 nM | N[C@H]1CC=CC[C@@H]1c1sc2c(NCc3ncco3)cc(Cl)nc2c1Cl [Compound 199, 2-((1S,6S)-6-aminocyclohex-3-en-1-yl)-3,5-dichloro-N-(oxazol-2-ylmethyl)thieno[3,2-b]pyridin-7-amine] |
| > 1000 nM | > 1000 nM | N[C@H]1CCC[C@@H]1c1sc2c(NCc3ccccc3)cc(Cl)nc2c1Cl [Compound 159, 2-((1S,2S)-2-aminocyclopentyl)-N-benzyl-3,5-dichlorothieno[3,2-b]pyridin-7-amine] |
